These results are taken from US8735437B2, “Imidazolidine carboxamide derivatives as lipase and phospholipase inhibitors” (Sanofi, priority 2007, dated 2014).

This assay deals with T1, endothelial lipase (EL) (Homo sapiens, UniProt Q9Y5X9).
T1 construct: made in house; host or cells: recombinant cell lines (CHO, HEK293); concentrated conditioned medium used as enzyme solution
T1 sequence (Q9Y5X9 21-500): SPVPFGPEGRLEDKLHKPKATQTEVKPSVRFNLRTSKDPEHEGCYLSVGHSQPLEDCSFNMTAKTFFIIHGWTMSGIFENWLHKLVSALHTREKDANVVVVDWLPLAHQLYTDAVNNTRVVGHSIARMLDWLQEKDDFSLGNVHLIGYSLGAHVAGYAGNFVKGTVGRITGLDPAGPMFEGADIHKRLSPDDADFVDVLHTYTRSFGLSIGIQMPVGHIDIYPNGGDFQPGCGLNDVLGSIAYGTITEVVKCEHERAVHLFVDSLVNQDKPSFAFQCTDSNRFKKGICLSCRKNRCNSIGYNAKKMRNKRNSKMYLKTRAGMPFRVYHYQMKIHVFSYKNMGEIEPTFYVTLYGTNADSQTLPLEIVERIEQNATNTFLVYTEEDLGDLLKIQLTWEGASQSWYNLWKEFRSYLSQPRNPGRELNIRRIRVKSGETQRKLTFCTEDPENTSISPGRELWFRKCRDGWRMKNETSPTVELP
Nature of the assay: EL inhibition assay (EL activity assay, fluorescent Bodipy-labelled phospholipid substrate). Type of assay: biochemical. To be noted: enzyme solution = conditioned medium of recombinant cell lines (CHO, HEK293); 37° C., 90 minutes; pH=7.4. The text has this:
EL is released as secretory protein in high concentration into cell culture medium (conditioned medium) by recombinant cell lines (CHO, HEK293). This is employed as enzyme solution after concentration.
The phospholipase-specific substrate 1,2-bis(4,4-difluoro-5,7-dimethyl-4-bora-3a,4a-diaza-s-indacene-3-undecanoyl)-sn-glycero-3-phosphocholine, (manufacturer Molecular Probes) is used to characterize the enzymatic activity of endothelial lipase and the effect of inhibitors. Hydrolysis of the A1 ester linkage of this phospholipid by the enzyme liberates a fatty acid labeled with the fluorescent dye Bodipy which can be detected after separation by thin-layer chromatography on an HPTLC plate (silica gel 60, Merck) or directly in the reaction vessel by measuring the fluorescence. The substrate solution is prepared by dissolving 100 μg of 1,2-bis(4,4-difluoro-5,7-dimethyl-4-bora-3a,4a-diaza-s-indacene-3-undecanoyl)-sn-glycero-3-phospho-choline (manufacturer Molecular Probes) in 100 μl of DMSO and taking it up in 2.4 mg of tripalmitin (Sigma) in 393 μl of chloroform which contains 20 mg/ml of DOP-choline (1,2-dioleoyl-sn-glycero-3-phosphocholine). 39.3 μl of this lipid mixture are transferred into a fresh reaction vessel. After evaporation of the solvent, the lipid mixture is dissolved in 4 ml of 200 mM TRIS-HCl, 150 mM sodium chloride, pH=7.4, by sonication twice. The subsequent enzymic reaction takes place at 37° C. for 90 minutes. For this purpose, 20 μl of the substrate solution are incubated with 2 μl of inhibitor of appropriate concentration (dissolved in 10% DMSO, 10% strength DMSO solution is used as control) and 2 μl of enzyme solution (conditioned medium). Then 4 μl of the assay mixture are loaded onto an HPTLC plate (silica gel 60, Merck), and the liberated fluorescent dye is separated for detection with an eluent (diethyl ether:petroleum benzine:acetic acid [78:22:1]). After evaporation of the eluent, the plate is read in a fluorescence scanner. An increased release of the fluorescent dye in the uninhibited reaction is to be observed as a measure of the enzymic activity.
The enzymatic activity is reduced as a function of the inhibitor concentration used, and the inhibitor concentration at which a half-maximum enzymic activity is observed is called IC50.
Turning to `O=C1CN(Cc2ccccc2)C(=O)N1C(=O)N[C@H]1CCc2ccccc21` [Example 3, 3-Benzyl-2,5-dioxoimidazolidine-1-((S)-indan-1-yl)carboxamide], the IC50 came to 0.145 µM.

Regarding `O=C(NC1CCCc2ccccc21)N1C(=O)C2Cc3ccccc3CN2C1=O` (centres unmarked) [Example 28, 1,3-Dioxo-1,5,10,10a-tetrahydroimidazo[1,5-b]isoquinoline-2-(1,2,3,4-tetra-hydronaphthalen-1-yl)carboxamide], the IC50 is 0.059 µM.

Take `CCCCCCNC(=O)N1C(=O)CN(Cc2ccccc2)C1=O` [Example 1, 3-Benzyl-2,5-dioxoimidazolidine-1-hexylcarboxamide]: the IC50 stood at 0.005 µM.

For `O=C1CN(Cc2ccccc2)C(=O)N1C(=O)NCCc1cccs1` [Example 6, 3-Benzyl-2,5-dioxoimidazolidine-1-(2-thiophen-2-ylethyl)carboxamide], the IC50 was 0.143 µM. In the case of `Cc1ccccc1CNC(=O)N1C(=O)C2Cc3ccccc3CN2C1=O` (centres unmarked) [Example 29, 1,3-Dioxo-1,5,10,10a-tetrahydroimidazo[1,5-b]isoquinoline-2-methylbenzyl-2-carboxamide], the IC50 came out at 0.143 µM. In the case of `O=C1CN(Cc2ccccc2)C(=O)N1C(=O)N[C@@H]1CCc2ccccc21` [Example 4, 3-Benzyl-2,5-dioxoimidazolidine-1-((R)-indan-1-yl)carboxamide], the IC50 was 0.0005 µM. For `CCCCCCNC(=O)N1C(=O)N(C)C(C)(C)C1=O` [Example 9, 3,4,4-Trimethyl-2,5-dioxoimidazolidine-1-hexylcarboxamide], the IC50 came out at 0.037 µM. The value for `Cc1ccccc1CNC(=O)N1C(=O)CN(Cc2ccccc2)C1=O` [Example 2, 3-Benzyl-2,5-dioxoimidazolidine-1-(2-methylbenzyl)carboxamide] was 0.147 µM; that for `CCCCCCCNC(=O)N1C(=O)CN(Cc2ccccc2)C1=O` [Example 7, 3-Benzyl-2,5-dioxoimidazolidine-1-heptylcarboxamide] was 0.083 µM; that for `CCCCCCNC(=O)N1C(=O)C2Cc3ccccc3CN2C1=O` (centres unmarked) [Example 24, 1,3-Dioxo-1,5,10,10a-tetrahydroimidazo[1,5-b]isoquinoline-2-hexylcarboxamide] was 0.039 µM. Under `CCCCCCNC(=O)N1C(=O)C2CCCCN2C1=O` (centres unmarked) [Example 23, 1,3-Dioxohexahydroimidazo[1,5-a]pyridine-2-hexylcarboxamide] stands 0.044 µM; under `O=C1CN(Cc2ccccc2)C(=O)N1C(=O)NC1CCCc2ccccc21` (centres unmarked) [Example 5, 3-Benzyl-2,5-dioxoimidazolidine-1-(1,2,3,4-tetrahydronaphthalen-1-yl)carboxamide], 0.008 µM.

For the compound `CCCCCCNC(=O)N1C(=O)CN(C)C1=O` [Example 8, 3-Methyl-2,5-dioxoimidazolidine-1-hexyl carboxamide], the IC50 came to 0.047 µM. The value for `CCCCCCCNC(=O)N1C(=O)CN(CCCC)C1=O` [Example 21, 3-Butyl-2,5-dioxoimidazolidine-1-heptylcarboxamide] was 0.059 µM.
